Laboratory results from patent US20220062233A1 (The Board of Trustees of the Leland Stanford Junior …, priority 2018, published 2022).

Key:
[1] = molecular target: T1, interaction between Supt4h and NGN (subunit of Supt5h) (Homo sapiens, UniProt O00267+P63272); assay: Split Gaussia luciferase complementation assay (M2-8 Luciferase); type: cell-based; details: M2-8 cells
T1 construct: expressed in transfected cells
Procedure, shortened: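 HEK293-derived M2-8 cells inducibly express Supt4h-Gluc1 and NGN-Gluc2 fragments (stabilizing mutations) on RheoSwitch ligand addition; ligand plus compound added 24 h after plating and left 24 h. Cells frozen, lysed with 10 μg/ml native coelenterazine, 1 h room temperature dark; complemented luciferase luminescence read.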

mutant HTT = assay: Mutant HTT assay in lymphoblastoid cells (LBC), Western blot; type: cell-based, human; details: read-out: LBC IC20 (nM) mHTT, 3 days compound treatment
Procedure, shortened: (§1)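 HD patient lymphoblastoid cells (GM14044, 250 CAG repeats in mutant allele) treated with compound for 3 days. Lysates normalised by BCA, run on SDS-PAGE and immunoblotted: mutant HTT with anti-polyQ MW1, wild-type HTT with anti-Huntingtin antibody, TBP and tubulin also probed. Band intensities quantified by infrared imaging.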

wild-type HTT = assay: Wild-type HTT assay in lymphoblastoid cells (LBC), Western blot; type: cell-based, human; details: 3 days compound treatment, read-out: LBC IC20 (nM) wtHTT
Procedure, shortened: as §1

mouse hepatocytes = assay: In vitro metabolic stability in mouse hepatocytes; type: in vitro ADME
Procedure: A. In Vitro Metabolic Stability in Hepatocyte
A compound's metabolic stability was assessed using mouse hepatocytes incubated with pre-defined concentration of test articles over several incubation period. The extent of metabolism was calculated from the disappearance of the test compound measured by liquid chromatography mass spectrometry (LC-MS), compared to that of 0-min control. After incubation, quench solutions including internal standards were added and analyzed by LC/MS. The elimination rate constant and intrinsic clearance (CLhepatocyte) values were calculated by linear regression of the compound elimination over the duration of incubation, normalized to the cell number in the given volume of incubation medium.

[2] = tested on: Lymphoblastoid cells (GM14044); assay: LBC cell viability (Cell Titer-Glo); type: cell-based, human; details: at the concentration of IC20, 3-day compound treatment
Procedure: Cell viability was determined by Cell Titer-Glo reagent (Promega, PRG9243). After 3-day compound treatment, 15 μl of cell suspension was taken out from plate and incubated with 10 μl of CTG reagent. The values of reaction mixture were detected by Tecan.

M2-8 cells = assay: M2-8 Cell viability Assay; type: cell-based; details: at the concentration of 1000 nM

| Structure (SMILES) | IC50 [1] | IC20 (mutant HTT) | IC20 (wild-type HTT) | Mouse HepStability (CLhepatocyte) (mouse hepatocytes) | LBC viability at IC20 [2] | M2-8 Cell viability (M2-8 cells) | elimination in in vitro hepatocyte stability assay (comparison) (mouse hepatocytes; compound #2 versus deuterated compound #42, FIG. 1A) |
| --- | --- | --- | --- | --- | --- | --- | --- |
| OCc1ccc(CNC2CCCc3c2[nH]c2ccc(Br)cc32)cc1 (stereo not shown) [Compound 1] | ≤ 100 nM | 101 to 300 nM | > 1000 nM | C (CLhepatocyte >30 μl/min/10^6cells) | * (cell viability is greater than 60% at the concentration of IC20) | + (cell viability is greater than 50% at the concentration of 1000 nM) | – |
| OCCOCc1ccc(CN[C@@H]2CCCc3c2[nH]c2ccc(Br)cc32)cc1 (single isomer, unassigned) [Compound 28] | ≤ 100 nM | < 100 nM | > 1000 nM | A (CLhepatocyte <10 μl/min/10^6cells) | * (cell viability is greater than 60% at the concentration of IC20) | + (cell viability is greater than 50% at the concentration of 1000 nM) | – |
| OCc1ccc(CN[C@@H]2CCCc3c2[nH]c2ccc(Br)cc32)cc1 [Compound 2, (R)-(4-(((6-bromo-2,3,4,9-tetrahydro-1H-carbazol-1-yl)amino)methyl)phenyl)methanol] | ≤ 100 nM | < 100 nM | > 250 nM | C (CLhepatocyte >30 μl/min/10^6cells) | * (cell viability is greater than 60% at the concentration of IC20) | + (cell viability is greater than 50% at the concentration of 1000 nM) | more rapidly eliminated |
| CC(C)(O)c1ccc(CN[C@@H]2CCCc3c2[nH]c2ccc(Br)cc32)cc1 [Compound 31, (R)-2-(4-(((6-bromo-2,3,4,9-tetrahydro-1H-carbazol-1-yl)amino)methyl)phenyl)propan-2-ol] | ≤ 100 nM | < 100 nM | > 250 nM | A (CLhepatocyte <10 μl/min/10^6cells) | * (cell viability is greater than 60% at the concentration of IC20) | + (cell viability is greater than 50% at the concentration of 1000 nM) | – |
| CS(=N)(=O)c1ccc(CN[C@@H]2CCCc3c2[nH]c2ccc(Br)cc32)cc1 (stereo partly drawn) [Compound 49, (4-((((R)-6-bromo-2,3,4,9-tetrahydro-1H-carbazol-1-yl)amino)methyl)phenyl)(imino)(methyl)-λ^6-sulfanone] | ≤ 100 nM | 101 to 300 nM | > 500 nM | B (CLhepatocyte 10-30 μl/min/10^6cells) | * (cell viability is greater than 60% at the concentration of IC20) | + (cell viability is greater than 50% at the concentration of 1000 nM) | – |
| [2H]C([2H])(O)c1ccc(CN[C@@H]2CCCc3c2[nH]c2ccc(Br)cc32)cc1 [Compound 42, (R)-(4-(((6-bromo-2,3,4,9-tetrahydro-1H-carbazol-1-yl)amino)methyl)phenyl)methan-d2-ol] | ≤ 100 nM | < 100 nM | > 1000 nM | C (CLhepatocyte >30 μl/min/10^6cells) | * (cell viability is greater than 60% at the concentration of IC20) | + (cell viability is greater than 50% at the concentration of 1000 nM) | – |
